Assay results as given in patent publication US20060128724A1, “Pyrazole-substituted aminoheteroaryl compounds as protein kinase inhibitors” (AGOURON PHARMACEUTICALS, INC., priority 2004, published 2006).
Read-outs that look alike come from different tables or passages of the source.

Target: T1, c-MET (HGFR) (Homo sapiens, UniProt P08581)
T1 construct: purchased Upstate 14-526
Experiment: HGFR Continuous-Coupled Spectrophotometric Assay
Format: biochemical
Conditions: for Ki: Met-2 substrate peptide, 50 nM HGFR, 37° C.
Description: The following in vitro assay may be used to determine the level of activity and effect of the different compounds of the present invention on one or more of the PKs. Similar assays can be designed along the same lines for any PK using techniques well known in the art.
The general procedure is as follows: compounds and kinase assay reagents are introduced into test wells. The assay is initiated by addition of the kinase enzyme. Enzyme inhibitors reduce the measured activity of the enzyme.
In the continuous-coupled spectrophotometric assay the time-dependent production of ADP by the kinase is determined by analysis of the rate of consumption of NADH by measurement of the decrease in absorbance at 340 nm. As the PK produces ADP it is re-converted to ATP by reaction with phosphoenol pyruvate and pyruvate kinase. Pyruvate is also produced in this reaction. Pyruvate is subsequently converted to lactate by reaction with lactate dehydrogenase, which simultaneously converts NADH to NAD.
HGFR Continuous-Coupled Spectrophotometric Assay
This assay analyzes the tyrosine kinase activity of HGFR on the Met-2 substrate peptide, a peptide derived from the activation loop of the HGFR.
• 1. […] Dissolve up in 200 mM HEPES, pH 7.5 at 10 mM stock. • 3. 1 M PEP (phospho-enol-pyruvate) in 200 mM HEPES, pH 7.5 • 4. 100 mM NADH (B-Nicotinamide Adenine Dinucleotide, Reduced Form) in 200 mM HEPES, pH 7.5 • 5. 4 M MgCl2 (Magnesium Chloride) in ddH2O • 6. 1 M DTT (Dithiothreitol) in 200 mM HEPES, pH 7.5 • 7. 15 Units/mL LDH (Lactic Dehydrogenase) • 8. 15 Units/mL PK (Pyruvate Kinase) • 9. 5M NaCl dissolved in ddH2O • 10. Tween-20 (Protein Grade) 10% Solution • 11. 1 M HEPES buffer: (N-[2-Hydroxethyl]piperazine-N-[2-ethanesulfonic acid]) Sodium Salt. Dissolve in ddH2O, adjust pH to 7.5, bring volume to 1 L. Filter at 0.1 μm. • 12. […] 100% DMSO (SIGMA) • 14. […] Beckman DU-650 w/micro cell holders • 18. Beckman 4-position micro cell cuvette Procedure:
Prep Dilution Buffer (DB) for Enzyme (For 30 mL prep) • 1. DB final concentration is 2 mM DTT, 25 mM NaCl2, 5 mM MgCl2, 0.01% Tween-20, and 50 mM HEPES buffer, pH 7.5. • 2. Make up 50 mM HEPES by adding 1.5 mL 1 M HEPES into 28.1 mL of ddH2O. Add rest of the reagents. Into 50 mL conical vial, add 60 μL of 1M DTT, 150 μL 5M NaCl2, 150 μL 1M MgCl2, and 30 μL of 10% Tween-20 to give total volume of 30 mL. • 3. […] Aliquot out DB at 1 mL/tube and label tubes as “DB HGFR” • 5. Note: This can be prepared and stored ahead of time. • 6. Freeze un-used aliquots in microcentrifuge tubes at −20° C. freezer. […] For compound dilution plate, add 4 μL of 10 mM stock into column 1 of plate, and bring volume to 100 μL with 100% DMSO. • 2. Set up the Precision 2000 dilution method. A final concentration of 200 μM compound in 50% DMSO, 100 mM HEPES (1:2 serial dilution). Prep Coupled Enzymatic Buffer:
1. Final concentration in assay:
• 2. For a 10 mL reaction buffer add 10 μL of 1M PEP, 33 μL of 100 mM NADH, 50 μL of 4M MgCl2, 20 μL of 1M DTT, 6 μL of 500 mM ATP, and 500 μL of 10 mM Met-2 peptide into 100 mM HEPES buffer pH 7.5 and vortex/mix. • 3. Add coupling enzymes, LDH and PK, into reaction mix. Mix by gentle inversion. Running Samples
1. Spectrophotometer settings:
• 2. Add 85 μL of CE reaction mix into each well of assay plate. • 3. Add 5 μL of diluted compound into a well of the assay plate. • 4. Add 5 μL of 50% DMSO for negative control into last column of assay plate. • 5. Mix with multi-channel pipettor or orbital shaker. • 6. Pre-incubate for 10 minutes at 37° C. • 7. Add 10 μL of 500 nM HGFR to each well of assay plate; the final HGFR concentration is 50 nM in a total final volume of 100 μL. • 8. Measure activity for 10 minutes at λ=340 nm and 37° C.

T1 sequence (P08581 974-1390 limits assumed): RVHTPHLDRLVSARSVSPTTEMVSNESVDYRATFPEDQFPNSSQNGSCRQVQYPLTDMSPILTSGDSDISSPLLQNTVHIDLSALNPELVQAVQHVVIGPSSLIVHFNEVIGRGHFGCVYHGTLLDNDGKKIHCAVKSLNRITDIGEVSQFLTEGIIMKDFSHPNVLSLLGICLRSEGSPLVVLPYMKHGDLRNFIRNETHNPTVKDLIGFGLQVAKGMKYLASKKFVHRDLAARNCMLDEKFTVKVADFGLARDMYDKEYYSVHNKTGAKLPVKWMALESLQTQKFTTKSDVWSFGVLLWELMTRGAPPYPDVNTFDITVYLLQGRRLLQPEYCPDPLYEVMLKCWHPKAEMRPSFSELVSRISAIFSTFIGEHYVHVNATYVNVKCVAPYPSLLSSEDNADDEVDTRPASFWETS

Row | Ki (read-out: c-Met Ki) | SMILES | also measured
1 | 62 nM | CC(Oc1cc(-c2cnn(C[C@H]3COC(C)(C)O3)c2)cnc1N)c1c(Cl)ccc(F)c1Cl (stereo in doubt) [Example 86, 3-[1-(2,6-Dichloro-3-fluoro-phenyl)-ethoxy]-5-[1-(2,2-dimethyl-[1,3]dioxolan-4-ylmethyl)-1H-pyrazol-4-yl]-pyridin-2-ylamine] | 
2 | 396 nM | CCN(CC)C(=O)C(C)(C)n1cc(-c2cnc(N)c(OC(C)c3c(Cl)ccc(F)c3Cl)c2)cn1 (stereo not shown) [Example 55, 2-(4-{6-Amino-5-[1-(2,6-dichloro-3-fluoro-phenyl)-ethoxy]-pyridin-3-yl}-pyrazol-1-yl)-N,N-diethyl-isobutyramide] | 
3 | 70 nM | CC(Oc1cc(-c2cnn(C(C)(C)C(=O)NCCCO)c2)cnc1N)c1c(Cl)ccc(F)c1Cl (stereo not shown) [Example 32, 2-(4-{6-Amino-5-[1-(2,6-dichloro-3-fluoro-phenyl)-ethoxy]-pyridin-3-yl}-pyrazol-1-yl)-N-(3-hydroxy-propyl)-isobutyramide] | 
4 | 90 nM | Cc1nn(C(C)(C)C(=O)NCCCN(C)C)cc1-c1cnc(N)c(OC(C)c2c(Cl)ccc(F)c2Cl)c1 (stereo not shown) [Example 36, 2-(4-{6-Amino-5-[1-(2,6-dichloro-3-fluoro-phenyl)-ethoxy]-pyridin-3-yl}-3-methyl-pyrazol-1-yl)-N-(3-dimethylamino-propyl)-isobutyramide] | 
5 |  | CC(Oc1cc(-c2cnn(C3CCNCC3)c2)cnc1N)c1c(Cl)c(O)cc(F)c1Cl (stereo not shown) [Example 147, 3-{1-[2-Amino-5-(1-piperidin-4-yl-1H-pyrazol-4-yl)-pyridin-3-yloxy]ethyl}-2,4-dichloro-5-fluoro-phenol] | Ki (read-out: Met Ki): 30 nM
6 | 71 nM | CNC(=O)[C@H]1C[C@@H]1Cn1cc(-c2cnc(N)c(OC(C)c3c(Cl)ccc(F)c3Cl)c2)cn1 (stereo in doubt) [Example 10, 2-[(4-{6-amino-5-[1-(2,6-dichloro-3-fluorophenyl)ethoxy]pyridin-3-yl}-1H-pyrazol-1-yl)methyl]-N-methylcyclopropanecarboxamide] | 
7 |  | Nc1ncc(-c2cn[nH]c2)cc1OC1CCCCc2ccc(F)cc21 (stereo not shown) [Example 54, 3-(3-Fluoro-6,7,8,9-tetrahydro-5H-benzocyclohepten-5-yloxy)-5-(1H-pyrazol-4-yl)-pyridin-2-ylamine] | c-Met % Inhibition (test concentration not given): 21%
8 | 10 nM | CC(Oc1cc(-c2cnn(C3CCN(CC4CC4)CC3)c2)cnc1N)c1c(Cl)ccc(F)c1Cl (stereo not shown) [Example 45, 5-[1-(1-Cyclopropylmethyl-piperidin-4-yl)-1H-pyrazol-4-yl]-3-[1-(2,6-dichloro-3-fluoro-phenyl)-ethoxy]-pyridin-2-ylamine] | 
9 |  | CC(Oc1cc(Br)cnc1N)c1c(Cl)c(F)cc(F)c1Cl (stereo not shown) [Example 145, 5-Bromo-3-[1-(2,6-dichloro-3,5-difluoro-phenyl)-ethoxy]-pyridin-2-ylamine] | Ki (read-out: Met Ki): 30 nM
10 | 15 nM | C[C@@H](Oc1nc(-c2cnn(C3CCN(C(=O)CN(C)C)CC3)c2)cnc1N)c1c(Cl)ccc(F)c1Cl [Example 70, 1-[4-(4-{5-Amino-6-[(R)-1-(2,6-dichloro-3-fluoro-phenyl)-ethoxy]-pyrazin-2-yl}-pyrazol-1-yl)-piperidin-1-yl]-2-dimethylamino-ethanone] | 
11 | 47 nM | CC(Oc1cc(-c2cnn(CC3CN(CC4CC4)C3)c2)cnc1N)c1c(Cl)ccc(F)c1Cl (stereo not shown) [Example 112, 5-(1-{[1-(cyclopropylmethyl)azetidin-3-yl]methyl}1H-pyrazol-4-yl)-3-[1-(2,6-dichloro-3-fluorophenyl)ethoxy]pyridin-2-amine] | 
12 | 125 nM | CC(Oc1cc(-c2cnn(C(C)(C)C(=O)N(C)C)c2)cnc1N)c1c(Cl)ccc(F)c1Cl (stereo not shown) [Example 58, 2-(4-{6-Amino-5-[1-(2,6-dichloro-3-fluoro-phenyl)-ethoxy]-pyridin-3-yl}-pyrazol-1-yl)-N,N-dimethyl-isobutyramide] | 
13 | 170 nM | CC(Oc1cc(-c2cnn(S(C)(=O)=O)c2)cnc1N)c1c(Cl)ccc(F)c1Cl (stereo not shown) [Example 71, 3-[1-(2,6-Dichloro-3-fluoro-phenyl)-ethoxy]-5-(1-methanesulfonyl-1H-pyrazol-4-yl)-pyridin-2-ylamine] | 
14 |  | CC(Oc1cc(-c2cnn(C3CCNCC3)c2)cnc1N)c1cc(F)cc(F)c1Cl (stereo not shown) [Example 144, 3-[1-(2-Chloro-3,5-difluoro-phenyl)-ethoxy]-5-(1-piperidin-4-yl-1H-pyrazol-4-yl)-pyridin-2-ylamine] | Ki (read-out: Met Ki): 587 nM
15 | 10 nM | CC(Oc1cc(-c2cnn(C3CCN(C(C)C)CC3)c2)cnc1N)c1c(Cl)ccc(F)c1Cl (stereo not shown) [Example 38, 3-[1-(2,6-Dichloro-3-fluoro-phenyl)-ethoxy]-5-[1-(1-isopropyl-piperidin-4-yl)-1H-pyrazol-4-yl]-pyridin-2-ylamine] | 
16 | 144 nM | CC(Oc1cc(-c2cnn(C[C@H]3C[C@@H]3C(=O)N(C)C)c2)cnc1N)c1c(Cl)ccc(F)c1Cl (stereo in doubt) [Example 11, 2-[(4-{6-amino-5-[1-(2,6-dichloro-3-fluorophenyl)ethoxy]pyridin-3-yl}-1H-pyrazol-1-yl)methyl]-N,N-dimethylcyclopropanecarboxamide] | 
17 |  | CC(Oc1cc(-c2cnn(C3CCN(C(=O)NCCO)CC3)c2)cnc1N)c1c(Cl)ccc(F)c1Cl (stereo not shown) [Example 122, 4-(4-[6-Amino-5-[1-(2,6-dichloro-3-fluoro-phenyl)-ethoxy]-pyridin-3-yl}-pyrazol-1-yl)-piperidine-1-carboxylic acid (2-hydroxy-ethyl)-amide] | Ki (read-out: Met Ki): 150 nM
18 | 60 nM | CC(Oc1cc(-c2cnn(C(C)(C)C(=O)NCCCN(C)C)c2)cnc1N)c1c(Cl)ccc(F)c1Cl (stereo not shown) [Example 16, 2-(4-{6-Amino-5-[1-(2,6-dichloro-3-fluoro-phenyl)-ethoxy]-pyridin-3-yl}-pyrazol-1-yl)-N-(3-dimethylamino-propyl)-isobutyramide] | 
19 |  | COCC(=O)N1CCC(n2cc(-c3cnc(N)c(OC(C)c4c(Cl)ccc(F)c4Cl)c3)cn2)CC1 (stereo not shown) [Example 124, 1-[4-(4-{6-Amino-5-[1-(2,6-dichloro-3-fluoro-phenyl)-ethoxy]-pyridin-3-yl}-pyrazol-1-yl)-piperidin-1-yl]-2-methoxy-ethanone] | Ki (read-out: Met Ki): 14 nM
20 |  | CC(Oc1cc(-c2cnn(CC3(C)COC3)c2)cnc1N)c1c(Cl)ccc(F)c1Cl (stereo not shown) [Example 131, 3-[1-(2,6-Dichloro-3-fluoro-phenyl)-ethoxy]-5-[1-(3-methyl-oxetan-3-ylmethyl)-1H-pyrazol-4-yl]-pyridin-2-ylamine] | Ki (read-out: Met Ki): 50 nM
21 | 35 nM | CC(Oc1cc(-c2cnn(C3CCN(C(=O)OC(C)(C)C)CC3)c2)cnc1N)c1c(Cl)ccc(F)c1Cl (stereo not shown) [Example 94, tert-butyl 4-(4-{6-amino-5-[1-(2,6-dichloro-3-fluorophenyl)ethoxy]pyridin-3-yl}-1H-pyrazol-1-yl)piperidine-1-carboxylate] | 
22 | 22 nM | CC(Oc1cc(-c2cnn(C3CN(C(=O)CO)C3)c2)cnc1N)c1c(Cl)ccc(F)c1Cl (stereo not shown) [Example 105, 2-[3-(4-{6-amino-5-[1-(2,6-dichloro-3-fluorophenyl)ethoxy]pyridin-3-yl}1H-pyrazol-1-yl)azetidin-1-yl]-2-oxoethanol] | 
